Measured values as given in article PMC8962335, “In Vivo Evaluation of ECP Peptide Analogues for the Treatment of Acinetobacter baumannii Infection” (Biomedicines, 2022).
Converted amounts (≈) assume the structure as drawn. “And” between values parts separate entries of the source, which are not always exact repeats. Equal entries are not always repeated. Where a SMILES comes first, the peptide text is derived from it. Where no end group is shown, it is not given here.

How the values were obtained:
[1] = Tolerance study of peptides in mouse (Up and Down, main study, extra groups); format: in vivo, Balb/c mice; conditions: for clinical score: 30 mg/kg i.p., within 30 min; for clinical score / MTD: Up and Down assay; for MTD: in vivo, ip, one single dose, i.p., 1 mouse per peptide, read-out: maximum tolerated dose; for clinical signs after a single dose (main study): single i.p. dose: 20 mg/kg ECPep-D, 25 mg/kg ECPep-2D-Orn, all mice
Protocol: Initially, the “Up and Down” protocol was followed to determine the maximum lethal dose with some modifications. Briefly, one mouse was taken per peptide and increasing doses of the peptide were injected through the intraperitoneal (i.p.) route every 48 h, and the concentration at which the mouse had severe clinical symptoms or died was determined (Figure 1a).
Figure 1 Toxicity study plans. (a) “Up and Down” protocol: 1 mouse was injected, starting at a very low peptide dose and observed at 48 h intervals. […] (b) Main study: mice were divided into groups randomly; 1 as well as 2 peptide doses below the lethal dose from the “Up and Down” assay was given two times per day for 3 days (the protocol was readjusted in case of emergency owing to ethical principles, as detailed in the results section and Table S1). An extra group is for the vehicle. (c) Last study: Peptide was tested in smaller groups at lower doses depending on the results obtained from the main study.
Once the lethal concentration had been determined, we continued with the “main study” (Figure 1b). Two groups of 6 female mice were used at two different concentrations of both peptides, one and two concentrations below the maximum considered either by lethality or by clinical signs. The toxicity was further verified by mimicking the doses and frequency foreseen in the previous study, i.e., two doses per day for 3 days as the initial plan.
There was also an extra group to confirm the non-toxicity of the vehicle. For extra caution, some additional doses were applied to confirm the safety dose in case of repeated injections (Figure 1c).
Body weight (BW, g) of mice was measured before every injection and % BW gain was calculated. % BW gain = (new BW − initial BW)/initial BW × 100%(1)
In the tolerance study, for the “Up and Down” assay, the BW was recorded twice on the administration day and, for the “main study”, it was measured every day at the first 3 days and then at some selected days until the 16th day, when the monitoring was finished. In both efficacy assays, BW was recorded once a day but on the first day (Day 0), a second measure was conducted at 8 h.
The clinical symptoms were assessed through a scoring system, which contains 9 items, including changes of body weight, behavior, breathing, skin, hair, eyes and gastrointestinal status (see full list at Table S2). The score for each item increases from 0 to 3 according to the severe levels, up to a total of 27. During the study, when an animal obtained a score of 3 in any of the parameters assessed with a maximum score of 3, euthanasia was carried out to apply the endpoint criteria. Euthanasia would also be practiced if the sum of several parameters that are less than 3 separately was ≥ 7.
In the tolerance study, the clinical score was recorded at about 10 min, 30 min, 1 h, 2 h, 4 h, 7 h, 24 h and 48 h after injecting the peptides for the “Up and Down” assay and in the main study, the clinical score were only monitored when the BW was measured. During the efficacy assay, the clinical score was recorded every 2–3 h on Day 0 and then twice every day.

in vitro = conditions: human, MRC-5 cells; for CC50 at 24 h: LD50 (MRC-5) 24 h; for CC50 at 48 h: LD50 (MRC-5) 48 h
Protocol: (§1) Cytotoxicity was measured for the MRC-5 and HEK293T cell lines by MTT assay. Cells were grown in 5% CO2 at 37 °C with MRC-5 cell line maintained in MEMα and HEK293T in DMEM/F-12 media, both of which were supplemented with 10% FBS. The cells were passaged in 25 cm^2 or 75 cm^2 flasks to prepare 96-well plates with 3 × 10^4 cells/well, which were incubated overnight. Next, serial dilutions of ECPep-D and ECPep-2D-Orn were added to have a final concentration ranging from 100 to 0.78 μM (375 μg/mL to 3 μg/mL) and colistin was added at final concentrations ranging from 300 to 2.34 μM (380 μg/mL to 3 μg/mL) in corresponding wells. After incubation to the specified time, the medium of the plate was replaced by fresh medium containing 0.5 mg/mL MTT solution and the mixture was incubated for 2.5 h in 5% CO2 at 37 °C. The medium was then removed, and formazan was dissolved by adding DMSO. The optical density (OD) was recorded by using a Victor^3 plate reader (PerkinElmer, Waltham, MA, USA) set at 540 nm and 620 nm as a reference. Each test was performed in triplicate.

A. baumannii = format: cell-based, Acinetobacter baumannii; conditions: 24 h
Text: (§2) A. baumannii strain (CECT 452, Valencia, Spain, ATCC 15308, Manassas, VA, USA) and Pseudomonas aeruginosa (P. aeruginosa) strain (CECT 4122, Valencia, Spain, ATCC 15692, Manassas, VA, USA) were from the Colección Española de Cultivos Tipo (CECT, Valencia, Spain). The Escherichia coli (E. coli) BL21 (DE3) strain was from Novagen (Darmstadt, Germany). MRC-5 cells were from the American Type Culture Collection (ATCC, Manassas, VA, USA) and HEK293T cell line was kindly provided by Dr. Raquel Pequerul (UAB, Barcelona, Spain).
(§3) The MIC is defined as the lowest concentration of one reagent to prevent visible growth of bacteria. The MIC determination was followed by the protocol described previously. Briefly, bacteria in exponential growth were used to prepare a suspension in MHB with the approximate number of 5 × 10^5 CFU/mL. Next, an aliquot of 90 μL of bacteria suspension was added into each well of the 96-well polypropylene plate. Immediately, 10 μL of peptide diluted by 0.01% acetic acid was added to the corresponding well to have a final concentration ranging from 20 to 0.16 μM. The plate was incubated for 24 h at 37 °C, 100 rpm. The presence or absence of bacterial growth was visually inspected and confirmed by reading OD600 with Tecan Microplate Reader Spark®. Each test was performed in triplicate.

E. coli = format: cell-based, Escherichia coli; conditions: 24 h
Text: as §2, §3

P. aeruginosa = format: cell-based, Pseudomonas aeruginosa; conditions: 24 h
Text: as §2, §3

HEK293T cells = conditions: 48 h
Protocol: as §1

[2] = human serum in vitro; cited from earlier work
MRC-5 cells = assay: Cytotoxicity assay (MTT); conditions: all the assayed time range (up to 48 h), highest concentration 100 μM
Protocol: as §1

Compound	clinical score [1]	MTD [1] [mg/kg]	clinical signs after a single dose (main study) [1]	CC50 at 24 h (in vitro)	CC50 at 48 h (in vitro)	MIC A. baumannii (A. baumannii) [µM]	MIC E. coli (E. coli) [µM]	MIC P. aeruginosa (P. aeruginosa) [µM]	IC50 (HEK293T cells) [µM]	half-life time in human serum [2] [h]	toxicity for MRC-5 at the highest tested concentration (MRC-5 cells)	CC50 at 4 h (in vitro; LD50 (MRC-5) 4 h)
CC[C@@H](C)[C@@H](NC(=O)[C@@H](C)NC(=O)[C@@H](CCCNC(=N)N)NC(=O)[C@@H](CCSC)NC(=O)[C@@H](C)NC(=O)[C@H](NC(=O)[C@H](NC(=O)[C@@H](CCCNC(=N)N)NC(=O)[C@H]1CCCN1C(=O)[C@@H](CO)NC(=O)[C@H](NC(=O)[C@@H](Cc1c[nH]cn1)NC(=O)[C@@H](CCC(N)=O)NC(=O)[C@H](NC(=O)[C@@H](C)NC(=O)[C@@H](Cc1ccccc1)NC(=O)[C@@H](Cc1c[nH]c2ccccc12)NC(=O)[C@@H](CCC(N)=O)NC(=O)[C@@H](C)NC(=O)[C@@H](CCCNC(=N)N)NC(=O)[C@H](NC(=O)[C@@H](Cc1ccccc1)NC(=O)[C@H]1CCCN1C(=O)[C@H](N)CCCNC(=N)N)[C@H](C)O)[C@H](C)CC)[C@H](C)CC)[C@H](C)O)[C@H](C)CC)C(=O)N[C@H](CC(N)=O)C(=O)N[C@H](CC(N)=O)C(=O)N[C@H](Cc1ccc(O)cc1)C(=O)N[C@H](CCCNC(=N)N)C(=O)N[C@H](Cc1c[nH]c2ccccc12)C(=O)N[C@H](CCCNC(=N)N)C(N)=O [ECPep-D] (HELM PEPTIDE1{[dR].[dP].[dF].[dT].[dR].[dA].[dQ].[dW].[dF].[dA].[dI].[dQ].[dH].[dI].[dS].[dP].[dR].[dT].[dI].[dA].[dM].[dR].[dA].[dI].[dN].[dN].[dY].[dR].[dW].[dR].[am]}$$$$V2.0)	over 6	20	did not cause any obvious clinical signs	164 ± 33.2 µg/mL (≈ 43.5 µM)	88.4 ± 17.8 µg/mL (≈ 23.5 µM)	10 (≈ 37.6 µg/mL)	10 (≈ 37.6 µg/mL)	10 (≈ 37.6 µg/mL)				
CC[C@H](C)[C@H](NC(=O)[C@H](C)NC(=O)[C@H](CCCN)NC(=O)[C@H](CCSC)NC(=O)[C@H](C)NC(=O)[C@@H](NC(=O)[C@@H](NC(=O)[C@H](CCCN)NC(=O)[C@@H]1CCCN1C(=O)[C@H](CO)NC(=O)[C@@H](NC(=O)[C@H](Cc1c[nH]cn1)NC(=O)[C@H](CCC(N)=O)NC(=O)[C@@H](NC(=O)[C@H](C)NC(=O)[C@H](Cc1ccccc1)NC(=O)[C@H](Cc1c[nH]c2ccccc12)NC(=O)[C@H](CCC(N)=O)NC(=O)[C@H](C)NC(=O)[C@H](CCCN)NC(=O)[C@@H](NC(=O)[C@H](Cc1ccccc1)NC(=O)[C@H]1CCCN1C(=O)[C@@H](N)CCCN)[C@@H](C)O)[C@@H](C)CC)[C@@H](C)CC)[C@@H](C)O)[C@@H](C)CC)C(=O)N[C@@H](CC(N)=O)C(=O)N[C@@H](CC(N)=O)C(=O)N[C@@H](Cc1ccc(O)cc1)C(=O)N[C@@H](CCCN)C(=O)N[C@@H](Cc1c[nH]c2ccccc12)C(=O)N[C@@H](CCCN)C(N)=O [ECPep-2D-Orn] (HELM PEPTIDE1{[Orn].[dP].F.T.[Orn].A.Q.W.F.A.I.Q.H.I.S.P.[Orn].T.I.A.M.[Orn].A.I.N.N.Y.[Orn].W.[Orn].[am]}$$$$V2.0)	over 6	25	did not cause any obvious clinical signs	> 100 µM and > 351 µg/mL	> 100 µM and > 351 µg/mL	5 (≈ 17.5 µg/mL)	>20	>20	> 100	> 8	no toxicity was observed	
RPFTRAQWFAIQHISPRTIAMRAINNYRWR-NH2 [ECPep-L]						10	10	10		0.2		276 µM and > 1000 µg/mL
